Laboratory results from patent publication US20140350273A1, “PEDIATRIC USES OF CABAZITAXEL” (AVENTIS PHARMA S.A., priority 2012, published 2014).
Read-outs that look alike come from different tables or passages of the source.

Tested on: human Ewing's sarcoma TC-71
Type: in vivo
Details: for Average body weight change in % per mouse at nadir / Biological interpretation / Drug death / Regressions Complete / Regressions Partial / Tumor free survivors at day 120 / day of nadir / ΔT/ΔC in % (day 21): 16
Description: This efficacy may be quantified, for example, as changes in tumor volume for each treated (T) and control (C) group, which are calculated for each animal and each day by subtracting the tumor volume on the day of first treatment (staging day) from the tumor volume on the specified observation day. This allows calculating the tumor growth inhibition: ΔT/ΔC=(median delta T/median delta C)×100. Individual tumor volume changes from baseline are thereafter analyzed by a non-parametric two-way ANOVA-TYPE (with factors: group and repeated days) followed by a post-hoc contrasts analysis, with Bonferroni-Holm adjustment for multiplicity, comparing all treated groups to the control group. […] A probability less than 5% (p<0.05) was considered as significant.
Based on the National Cancer Institute (NCl) standards, a ΔT/ΔC≦40% is the minimal level required to declare activity.
The tumor doubling time (in days; Td) was estimated from the plot of the log linear growth of the control group tumors in exponential growth (100 to 1000 mm^3 range) [T. H. Corbett et al., Cancer, 40: 2660-2680 (1977); F. M. Schabel et al., Cancer Drug Development, Part B, Methods in Cancer Research, 17: 3-51, New York, Academic Press Inc. (1979)].
This efficacy may also be quantified by the number of tumor regressions observed after therapy. Individual mice reporting a tumor volume ≦50% of the Day 0 measurement for two consecutive measurements over a seven day period were considered partial responders (PR). Individual mice lacking palpable tumors (<4×4 mm^2 for two consecutive measurements over a seven day period) were classified as complete responders (CR); a CR that persisted until study completion was considered a tumor-free survivor (TFS).
The animals subjected to the experiment are subcutaneously grafted unilaterally with approximately 30 mg of a tumor fragment on day 0. The animals are implanted with a human tumor xenografted in immunocompromized mice. Several days post tumor implantation, mice are randomized according to their body weight to the different groups of treatments and controls. The animals are observed every day. […] The groups are then weighed once or twice a week until the end of the trial.
The tumors are measured 1 to 5 times a week, depending on the tumor doubling time, until the tumor reaches approximately 1,000 mm^3, or until the animal dies (if this occurs before the tumor reaches 1,000 mm^3). The animals are necropsied immediately after euthanasia or death.
The selected tumor model was a human Ewing's sarcoma TC-71, xenografted in SCID mice [Whang-Peng J, et al. Cancer Genet Cytogenet. 1986 Apr. 1; 21(3):185208].
Treatment solutions were prepared first by mixing 1 volume of ethanolic stock solution and 1 volume of polysorbate 80, then by adding 18 volumes of glucose 5% in water.

[1] = 3.5 mg/kg per injection (total 7.0) IV days 12
[2] = 5.6 mg/kg per injection (total 11.2) IV days 12
[3] = 5.6 mg/kg per injection (total 11.2) IV days 12, listed as CABAZITAXEL
[4] = 9.0 mg/kg per injection (total 18) IV days 12
[5] = 9.0 mg/kg per injection (total 18) IV days 12, listed as CABAZITAXEL
[6] = 14.5 mg/kg per injection (total 29) IV days 12
[7] = 14.5 mg/kg per injection (total 29) IV days 12, listed as CABAZITAXEL
[8] = 3.5 mg/kg per injection (total 7.0) IV days 12, listed as DOCETAXEL
[9] = 3.5 mg/kg per injection (total 7.0) IV days 12, listed as docetaxel
[10] = 9.0 mg/kg per injection (total 18) IV days 12, listed as DOCETAXEL
[11] = 9.0 mg/kg per injection (total 18) IV days 12, listed as docetaxel
[12] = 14.5 mg/kg per injection (total 29) IV days 12, listed as DOCETAXEL

SMILES: CO[C@H]1C(=O)[C@]2(C)[C@@H](OC)C[C@H]3OC[C@@]3(OC(C)=O)[C@H]2[C@H](OC(=O)c2ccccc2)[C@]2(O)C[C@H](OC(=O)[C@H](O)[C@@H](NC(=O)OC(C)(C)C)c3ccccc3)C(C)=C1C2(C)C [Cabazitaxel, 4α-acetoxy-2α-benzoyloxy-5β,20-epoxy-1β-hydroxy-7β,10β-dimethoxy-9-oxo-11-taxen-13α-yl (2R,3S)-3-tert-butoxycarbonyl-amino-2-hydroxy-3-phenylpropionate]
- Average body weight change in % per mouse at nadir [1]: −2.3%
- Biological interpretation [1]: active
- Drug death [1]: 0/7
- Regressions Complete [1]: 0/7
- Regressions Partial [1]: 0/7
- Tumor free survivors at day 120 [1]: 0/7
- day of nadir [1]: 21 days
- ΔT/ΔC in % (day 21) [1]: 27%
- Biological interpretation (3.5 mg/kg per injection (total 7.0) IV days 12, listed as CABAZITAXEL): Active
- Average body weight change in % per mouse at nadir [2]: −7.0%
- Drug death [2]: 0/7
- Regressions Complete [2]: 0/7
- Regressions Partial [2]: 6/7
- Tumor free survivors at day 120 [2]: 0/7
- day of nadir [2]: 18 days
- Biological interpretation [3]: Highly Active
- ΔT/ΔC in % (day 21) [3]: <0%
- Biological interpretation (5.6 mg/kg per injection (total 11.2) IV days 12, listed as cabazitaxel): highly active
- Tumor volume changes from baseline: Median (nMad) (5.6 mg/kg, day 26): −162 (65.2)
- Average body weight change in % per mouse at nadir [4]: −7.0%
- Drug death [4]: 0/7
- Regressions Complete [4]: 6/7
- Regressions Partial [4]: 7/7
- Tumor free survivors at day 120 [4]: 6/7
- day of nadir [4]: 18 days
- Biological interpretation [5]: Highly Active
- ΔT/ΔC in % (day 21) [5]: <0%
- Biological interpretation (9.0 mg/kg per injection (total 18) IV days 12, listed as cabazitaxel): highly active
- Tumor volume changes from baseline: Median (nMad) (9 mg/kg, day 26): −196 (51.9)
- Tumor volume changes from baseline: Median (nMad) (9 mg/kg, day 28): −196 (50.4)
- Tumor volume changes from baseline: Median (nMad) (9 mg/kg, day 30): −196 (50.4)
- Tumor volume changes from baseline: Median (nMad) (9 mg/kg, day 34): −196 (72.6)
- Average body weight change in % per mouse at nadir [6]: −9.0%
- Drug death [6]: 0/7
- Regressions Complete [6]: 7/7
- Regressions Partial [6]: 7/7
- Tumor free survivors at day 120 [6]: 6/7
- day of nadir [6]: 23 days
- Biological interpretation [7]: Highly Active
- ΔT/ΔC in % (day 21) [7]: <0%
- Biological interpretation (14.5 mg/kg per injection (total 29) IV days 12, listed as cabazitaxel): highly active
- Tumor volume changes from baseline: Median (nMad) (14.5 mg/kg, day 26): −184 (43)
- Tumor volume changes from baseline: Median (nMad) (14.5 mg/kg, day 28): −194 (47.4)
- Tumor volume changes from baseline: Median (nMad) (14.5 mg/kg, day 30): −198 (53.4)
- Tumor volume changes from baseline: Median (nMad) (14.5 mg/kg, day 34): −198 (53.4)
- Tumor volume changes from baseline: Median (nMad) (14.5 mg/kg, day 36): −180 (53.4)
- Tumor volume changes from baseline: Median (nMad) (14.5 mg/kg, day 40): −180 (53.4)
- antitumor activity compared with docetaxel (conclusion of example 2): more active than docetaxel

SMILES: CC(=O)O[C@@]12CO[C@@H]1C[C@H](O)[C@@]1(C)C(=O)[C@H](O)C3=C(C)[C@@H](OC(=O)[C@H](O)[C@@H](NC(=O)OC(C)(C)C)c4ccccc4)C[C@@](O)([C@@H](OC(=O)c4ccccc4)[C@H]21)C3(C)C [Docetaxel, docetaxel]
- Average body weight change in % per mouse at nadir [1]: −1.8%
- Drug death [1]: 0/7
- Regressions Complete [1]: 0/7
- Regressions Partial [1]: 0/7
- Tumor free survivors at day 120 [1]: 0/7
- day of nadir [1]: 13 days
- Biological interpretation [8]: Inactive
- ΔT/ΔC in % (day 21) [8]: 77%
- Biological interpretation [9]: inactive
- ΔT/ΔC in % (day 21) [9]: > 40%
- Tumor volume changes from baseline: Median (nMad) (3.5 mg/kg, day 19): 629
- Tumor volume changes from baseline: Median (nMad) (3.5 mg/kg, day 21): 1044
- Average body weight change in % per mouse at nadir [2]: −13.7%
- Drug death [2]: 0/7
- Regressions Complete [2]: 0/7
- Regressions Partial [2]: 0/7
- Tumor free survivors at day 120 [2]: 0/7
- day of nadir [2]: 22 days
- ΔT/ΔC in % (day 21) [2]: 31%
- Biological interpretation (5.6 mg/kg per injection (total 11.2) IV days 12, listed as DOCETAXEL): Active
- Biological interpretation (5.6 mg/kg per injection (total 11.2) IV days 12, listed as docetaxel): active
- Tumor volume changes from baseline: Median (nMad) (5.6 mg/kg, day 19): 371
- Tumor volume changes from baseline: Median (nMad) (5.6 mg/kg, day 21): 416
- Tumor volume changes from baseline: Median (nMad) (5.6 mg/kg, day 26): 1022.5
- Average body weight change in % per mouse at nadir [4]: −10.8%
- Drug death [4]: 0/7
- Regressions Complete [4]: 0/7
- Tumor free survivors at day 120 [4]: 0/7
- day of nadir [4]: 23 days
- Biological interpretation [10]: Highly Active
- Regressions Partial [10]: 2/7
- ΔT/ΔC in % (day 21) [10]: <0%
- Biological interpretation [11]: highly active
- Regressions Partial [11]: 5/7
- Tumor volume changes from baseline: Median (nMad) (9 mg/kg, day 19): 139
- Tumor volume changes from baseline: Median (nMad) (9 mg/kg, day 21): −36
- Tumor volume changes from baseline: Median (nMad) (9 mg/kg, day 26): 158
- Tumor volume changes from baseline: Median (nMad) (9 mg/kg, day 30): 406 (252)
- Tumor volume changes from baseline: Median (nMad) (9 mg/kg, day 34): 867 (209)
- Average body weight change in % per mouse at nadir [6]: −12.4%
- Drug death [6]: 0/7
- Regressions Complete [6]: 2/7
- Regressions Partial [6]: 6/7
- Tumor free survivors at day 120 [6]: 1/7
- day of nadir [6]: 23 days
- Biological interpretation [12]: Highly Active
- ΔT/ΔC in % (day 21) [12]: <0%
- Biological interpretation (14.5 mg/kg per injection (total 29) IV days 12, listed as docetaxel): highly active
- Tumor volume changes from baseline: Median (nMad) (14.5 mg/kg, day 16): 154
- Tumor volume changes from baseline: Median (nMad) (14.5 mg/kg, day 19): −72
- Tumor volume changes from baseline: Median (nMad) (14.5 mg/kg, day 21): −130
- Tumor volume changes from baseline: Median (nMad) (14.5 mg/kg, day 26): −130
- Tumor volume changes from baseline: Median (nMad) (14.5 mg/kg, day 28): −144
- Tumor volume changes from baseline: Median (nMad) (14.5 mg/kg, day 30): −126
- Tumor volume changes from baseline: Median (nMad) (14.5 mg/kg, day 34): −49
- Tumor volume changes from baseline: Median (nMad) (14.5 mg/kg, day 36): 75 (330.6)
- Tumor volume changes from baseline: Median (nMad) (14.5 mg/kg, day 40): 763
